{
  "source": "PubChem BioAssay AID1996",
  "data": [
    {"details": "buffer; pH 7.4; 200.0 µM", "units": {"solubility kinetic": "µg/mL"}, "values": [
      {"smiles": "COc1ccc(-c2cc3ccccc3[nH]2)cc1", "solubility kinetic": 1.4},
      {"smiles": "CC(=O)N1CCN(c2ccccc2NC(=O)c2ccco2)CC1", "solubility kinetic": "> 47"},
      {"smiles": "Cc1cnc(NC(=O)Nc2ccccc2)c(C)n1", "solubility kinetic": 32},
      {"smiles": "Cc1nc(NC(=O)CCl)sc1C(=O)N(C)C", "solubility kinetic": "> 39.3"},
      {"smiles": "CN(C)/C=C/C(=O)c1ccc([N+](=O)[O-])c(CS(=O)(=O)c2ccccc2)c1", "solubility kinetic": "> 56.2"},
      {"smiles": "CC(C)Sc1nc2c(c(=O)[nH]c(=O)n2C)n1Cc1ccccc1", "solubility kinetic": 2.8},
      {"smiles": "Cl.O=C(CN1CCCC1)Nc1ccc(Br)cc1", "solubility kinetic": "> 47.9"},
      {"smiles": "CN(C)c1cccc2c(C#N)ccc(N(C)C)c12", "solubility kinetic": "< 0.2"},
      {"smiles": "Cc1cc2nccc(-c3ccncc3)n2n1", "solubility kinetic": "> 31.5"},
      {"smiles": "O=C(Nc1ccccn1)c1ccc2c(=O)n3c(nc2c1)CCCCC3", "solubility kinetic": "> 50.2"},
      {"smiles": "O=C1[C@@H]2CSCN2C(=O)CN1Cc1cccc(C(F)(F)F)c1", "solubility kinetic": 44},
      {"smiles": "Oc1ccc(Br)cc1CNc1cnc2ccccc2c1", "solubility kinetic": 1},
      {"smiles": "O=[N+]([O-])c1ccc(Cl)c(S(=O)(=O)/N=C(/Nc2cccnc2)c2ccccc2)c1", "solubility kinetic": "> 62.5"},
      {"smiles": "Cc1cc(C(=O)COc2ccc(C#N)cc2)c(C)n1CC1CCCO1", "note": "(stereo unspecified)", "solubility kinetic": 16.7},
      {"smiles": "N#Cc1cccc(CSc2ncnc(N)n2)c1", "solubility kinetic": "> 36.5"},
      {"smiles": "Cc1cc(OCC(=O)NC2CCN(C)CC2)ccc1[N+](=O)[O-]", "solubility kinetic": "> 46.1"},
      {"smiles": "Cc1ccc(OCC(=O)O/N=C(\\N)Cc2ccc([N+](=O)[O-])cc2)cc1C", "solubility kinetic": 9.4},
      {"smiles": "CSCCC(NC(=O)COc1ccccc1)C(=O)N1CCCC(C)C1", "note": "(stereo unspecified)", "solubility kinetic": "> 54.7"},
      {"smiles": "CCN(C(=O)C12CC3CC(CC(C3)C1)C2)C1CCS(=O)(=O)C1", "note": "(stereo unspecified)", "solubility kinetic": "> 48.8"},
      {"smiles": "O=C(NC1CCCC1)C1CCCN(C(=O)Nc2ccccc2)C1", "note": "(stereo unspecified)", "solubility kinetic": 43.9},
      {"smiles": "N#C/C(=C/c1ccco1)C(N)=S", "solubility kinetic": "> 26.7"},
      {"smiles": "O=C(NCc1cccnc1)C1CC(c2cccc(Br)c2)=NO1", "note": "(stereo unspecified)", "solubility kinetic": 52.5},
      {"smiles": "O=C(c1ccc(=O)oc1)N1CCC(C(O)(c2ccccc2)c2ccccc2)CC1", "solubility kinetic": 57.3},
      {"smiles": "CCCCC(CC)CNC(=O)C(=O)C1C(=O)Nc2ccccc21", "note": "(stereo unspecified)", "solubility kinetic": 26.1},
      {"smiles": "Cl.O=C(CN1CCCCC1)Nc1cccc(Cl)c1", "solubility kinetic": 33.6},
      {"smiles": "O=C(/C=C/c1ccccc1[N+](=O)[O-])Nc1cccc(S(=O)(=O)NC2=NCCCCC2)c1", "solubility kinetic": 14.4},
      {"smiles": "O=C(NCC1CCCO1)c1ccc(-c2cccc(C(F)(F)F)c2)o1", "note": "(stereo unspecified)", "solubility kinetic": 38.4},
      {"smiles": "Cc1cc(C)cc(NC(=S)NCc2ccncc2)c1", "solubility kinetic": 20.6},
      {"smiles": "Cc1nc2c(C)c(C)c(C)c(C)c2nc1C", "solubility kinetic": "< 0.2"},
      {"smiles": "COc1ccc(-n2nc(C)cc2Nc2ccccc2C(=O)O)cc1", "solubility kinetic": "> 48.5"},
      {"smiles": "O=C(O)c1ccc2c(=O)n(-c3ccc(F)cc3)c(=S)[nH]c2c1", "solubility kinetic": "> 47.4"},
      {"smiles": "O=C(NCCc1ccc(Cl)cc1Cl)c1ccc2nc[nH]c2c1", "solubility kinetic": 33.2},
      {"smiles": "Cc1ccsc1C(=O)OCC(=O)NCc1ccccc1", "solubility kinetic": 10.9},
      {"smiles": "O=C(O)c1nccnc1C(=O)NCc1csc2ccc(Cl)cc12", "solubility kinetic": 46.4},
      {"smiles": "CC(c1ccccc1)n1c(Br)nc2c1c(=O)[nH]c(=O)n2C", "note": "(stereo unspecified)", "solubility kinetic": 11.2},
      {"smiles": "Cc1ccc(NC(=O)C23CCC(C)(C(=O)[C@H]2Br)C3(C)C)cc1", "note": "(stereo partly specified)", "solubility kinetic": 43.2},
      {"smiles": "Fc1ccc(NC2=NCCCCC2)cc1", "solubility kinetic": "> 30.9"},
      {"smiles": "N/C(=N\\OC(=O)CSc1ccccc1)c1ccncc1", "solubility kinetic": 37.6},
      {"smiles": "C=C1c2cc3c(cc2NC(=S)N1Cc1ccccc1)OCO3", "solubility kinetic": 9.8},
      {"smiles": "CC1CCCC(C)N1C(=O)COC(=O)CN1C(=O)c2ccccc2C1=O", "note": "(stereo unspecified)", "solubility kinetic": "> 53.8"},
      {"smiles": "NS(=O)(=O)c1ccc(NC(=O)COC(=O)CCCN2C(=O)c3cccc4cccc(c34)C2=O)cc1", "solubility kinetic": 8.8},
      {"smiles": "NC(=O)C1CCN(S(=O)(=O)Cc2ccccc2Cl)CC1", "solubility kinetic": "> 47.5"},
      {"smiles": "Cc1nc(-c2ccccn2)nc(N(C)c2ccccc2)c1Cl", "solubility kinetic": 41.7},
      {"smiles": "Cc1ccccc1S(=O)(=O)c1cc2ccccc2nc1N", "solubility kinetic": 1.5},
      {"smiles": "CCN(C(=O)CSc1nc2ccc(C)cc2[nH]1)C1CCS(=O)(=O)C1", "note": "(stereo unspecified)", "solubility kinetic": "> 55.1"},
      {"smiles": "O=C(c1cccc(S(=O)(=O)N2CCN(c3ccc(F)cc3)CC2)c1)N1CCCC1", "solubility kinetic": 61.9}
    ]}
  ]
}
